Test systems include OVCAR-8; MCF7; HCT-116; IGROV-1; NCI-H226; COLO 205; SF-539; TK-10; KM12; K562; LOX IMVI; SF-295; SNB-19; NCI-H23; SW-620; SR; RXF 393; ACHN; T47D; CCRF-CEM.
Common to all, as to assay: growth of human tumour cells (NCI), 48 h

The structures appear in SMILES notation.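 96-well plates; 48 h exposure; 5 concentrations. Endpoints by linear interpolation between flanking doses. Not reached: highest tested concentration assigned. Abbreviation: GI50, concentration required for 50% inhibition of growth.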 Calls of active or inactive are those of the source. Cut-off read from the data, not from the text of the source: active = GI50 up to about 1.1 µM and inactive = higher.

On to `O=C1/C(=C\c2ccc([N+](=O)[O-])o2)SC2NC(COc3ccc(Cl)cc3)=NN12` (stereo not given), for which the GI50 is 3.18 µM (inactive) in the assay on OVCAR-8; 2.12 µM (inactive) in the assay on MCF7; 3.4 µM (inactive) in the assay on HCT-116; 3.15 µM (inactive) in the assay on IGROV-1; 18.6 µM (inactive) with NCI-H226; 3.37 µM (inactive) in the assay on COLO 205. Besides, the GI50 with SF-539 was 4.1 µM (inactive); in the assay on TK-10 it was 17.6 µM (inactive); in the assay on KM12 it was 13.7 µM (inactive); with K562, 2.99 µM (inactive); with LOX IMVI, 2.93 µM (inactive); in the assay with SF-295 it was 19.3 µM (inactive). The GI50 was 16.7 µM (inactive) in the assay with SNB-19; 10 µM (inactive) with NCI-H23; 2.43 µM (inactive) in the assay with SW-620; 3.47 µM (inactive) in the assay with SR; 17.6 µM (inactive) with RXF 393; 1.96 µM (inactive) with ACHN. Besides, the GI50 was 1.79 µM (inactive) with T47D and 1.99 µM (inactive) with CCRF-CEM.
Turning to `O=C1/C(=C/C=C/c2ccccc2)CCC1CNc1ccc(Br)cc1` (stereo not given), the GI50 in the assay on OVCAR-8 was > 100 µM (inactive); in the assay on MCF7 it was 21 µM (inactive); in the assay with HCT-116, 37.9 µM (inactive); in the assay with IGROV-1, 46.8 µM (inactive); in the assay on NCI-H226 it was > 100 µM (inactive); with COLO 205, 20.8 µM (inactive). Further, the GI50 was > 100 µM (inactive) in the assay on SF-539; 43.3 µM (inactive) with TK-10; 15.2 µM (inactive) in the assay with KM12; 27.1 µM (inactive) in the assay with K562; > 100 µM (inactive) with LOX IMVI; > 100 µM (inactive) in the assay on SF-295. Besides, the GI50 with SNB-19 is > 100 µM (inactive); in the assay with NCI-H23, > 100 µM (inactive); with SW-620, 88.7 µM (inactive); in the assay on SR, 23.3 µM (inactive); with RXF 393 it was > 100 µM (inactive); in the assay on ACHN it was 6.53 µM (inactive). Moreover, the GI50 in the assay with T47D was 34.1 µM (inactive); with CCRF-CEM it was 22.7 µM (inactive).
Take `c1ccc([P+](CCN2Cc3ccccc3C2)(c2ccccc2)c2ccccc2)cc1`: the GI50 in the assay with OVCAR-8 was 2.32 µM (inactive); in the assay with MCF7, 3.59 µM (inactive); with HCT-116, 3 µM (inactive); in the assay on IGROV-1, 0.368 µM (active); with NCI-H226, 3.84 µM (inactive); in the assay with COLO 205, 1.56 µM (inactive). For the same molecule, the GI50 in the assay on SF-539 was 6.15 µM (inactive); with TK-10, 10.4 µM (inactive); with KM12 it was 3.23 µM (inactive); in the assay with K562 it was 2.79 µM (inactive); in the assay with LOX IMVI, 3.84 µM (inactive); with SF-295 it was 6.92 µM (inactive). Further, the GI50 with SNB-19 is 6.7 µM (inactive); in the assay on NCI-H23, 5.46 µM (inactive); in the assay on SW-620, 4.22 µM (inactive); in the assay on SR, 4.33 µM (inactive); in the assay with RXF 393 it was 5.35 µM (inactive); in the assay with ACHN it was 5.69 µM (inactive). Also, the GI50 in the assay with T47D was 2.4 µM (inactive); in the assay on CCRF-CEM it was 2.64 µM (inactive).
Consider `O=C1C=C2C(=NC34CCCCC3C(c3ccccc3)C3=C(c5ccccc5CC3)N24)c2ccccc21` (stereo not given), for which the GI50 in the assay with OVCAR-8, in the assay on MCF7, in the assay on HCT-116, in the assay with IGROV-1, in the assay on NCI-H226 and with COLO 205 was > 10 µM (inactive) each time. In addition, the GI50 with SF-539, in the assay with TK-10, in the assay on KM12, in the assay on K562, in the assay with LOX IMVI and in the assay with SF-295 was > 10 µM (inactive) throughout. Also, the GI50 was > 10 µM (inactive) with SNB-19; > 10 µM (inactive) with NCI-H23; > 10 µM (inactive) in the assay on SW-620; 8.22 µM (inactive) in the assay with SR; > 10 µM (inactive) in the assay on RXF 393; > 10 µM (inactive) in the assay with ACHN. In addition, the GI50 with T47D and with CCRF-CEM was > 10 µM (inactive) in each case.
With `CC(CCc1ccccc1)NCC(O)n1c(/N=N/N(C)C)nc2c1c(=O)n(C)c(=O)n2C` (stereo not given), the GI50 in the assay on OVCAR-8, in the assay with MCF7, with HCT-116, with IGROV-1, in the assay with NCI-H226 and in the assay on COLO 205 was > 100 µM (inactive) each time. Further, the GI50 in the assay with SF-539, in the assay on TK-10, in the assay on KM12, in the assay with K562, in the assay on LOX IMVI and with SF-295 was > 100 µM (inactive) in each case. Further, the GI50 is > 100 µM (inactive) in the assay on SNB-19; > 100 µM (inactive) with NCI-H23; > 100 µM (inactive) with SW-620; 43.2 µM (inactive) with SR; > 100 µM (inactive) in the assay with RXF 393; > 100 µM (inactive) with ACHN. Also, the GI50 with T47D and with CCRF-CEM was > 100 µM (inactive) throughout.
`OCCCCCCOc1ccc(-c2cc(-c3ccccn3)nc(-c3ccccn3)c2)cc1`: the GI50 in the assay with OVCAR-8 is 0.136 µM (active); in the assay with MCF7, 0.0321 µM (active); with HCT-116, 0.132 µM (active); with IGROV-1, 0.205 µM (active); in the assay on NCI-H226, 0.104 µM (active); in the assay on COLO 205 it was 0.372 µM (active). The GI50 in the assay with SF-539 was 0.143 µM (active); in the assay on TK-10, 0.357 µM (active); in the assay with KM12, 0.388 µM (active); in the assay on K562, 0.0728 µM (active); in the assay on LOX IMVI it was 0.117 µM (active); in the assay with SF-295, 0.194 µM (active). The GI50 with SNB-19 is 0.158 µM (active); in the assay on NCI-H23, 0.604 µM (active); with SW-620, 0.367 µM (active); in the assay with SR, 0.0286 µM (active); in the assay with RXF 393, 0.239 µM (active); in the assay on ACHN it was 0.108 µM (active). The GI50 in the assay on T47D was 0.148 µM (active); in the assay with CCRF-CEM it was 0.026 µM (active).
With `COC(=O)C1=C(C(=O)OC)N(c2ccncc2)C(c2ccco2)=CC1c1ccccc1[N+](=O)[O-]` (stereo not given), the GI50 with OVCAR-8 was 8.04 µM (inactive); with MCF7, 1.87 µM (inactive); with HCT-116 it was 1.6 µM (inactive); in the assay on IGROV-1 it was 1.95 µM (inactive); in the assay with NCI-H226 it was 4.99 µM (inactive); in the assay with COLO 205 it was 4.75 µM (inactive). For the same molecule, the GI50 with SF-539 was 1.75 µM (inactive); in the assay on TK-10, 2.75 µM (inactive); with KM12 it was 1.6 µM (inactive); with K562 it was 1.44 µM (inactive); in the assay with LOX IMVI it was 1.72 µM (inactive); in the assay on SF-295, 6.19 µM (inactive). The GI50 in the assay with SNB-19 is 7.18 µM (inactive); with NCI-H23, 13.9 µM (inactive); in the assay with SW-620 it was 6.9 µM (inactive); with SR it was 0.75 µM (active); in the assay on RXF 393 it was 4.65 µM (inactive); in the assay with ACHN, 2.01 µM (inactive). The GI50 was 3.78 µM (inactive) with T47D and 2.21 µM (inactive) in the assay with CCRF-CEM.

The values above are taken from ChEMBL document CHEMBL1201862, “PubChem BioAssay data set” (2004).
